Measurements as given in paper PMC6934184, “Selective DNA-PKcs inhibition extends the therapeutic index of localized radiotherapy and chemotherapy” (The Journal of Clinical Investigation, 2019).

Biological target: T1, WNK3 (Homo sapiens, UniProt Q9BYP7)
T1 construct: purchased Thermo Fisher Scientific (Life Technologies) SelectScreen
Test: SelectScreen LanthaScreen
Format: binding
Conditions: read-out: % displacement
Procedure, shortened: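 SelectScreen broad panel; activity (Z'LYTE, Adapta) plus binding formats. ATP: Km app for CSF1R Z'LYTE; 10 for CAMK1 Adapta. Readout = % per kinase.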

T1 sequence (Q9BYP7 whole entry): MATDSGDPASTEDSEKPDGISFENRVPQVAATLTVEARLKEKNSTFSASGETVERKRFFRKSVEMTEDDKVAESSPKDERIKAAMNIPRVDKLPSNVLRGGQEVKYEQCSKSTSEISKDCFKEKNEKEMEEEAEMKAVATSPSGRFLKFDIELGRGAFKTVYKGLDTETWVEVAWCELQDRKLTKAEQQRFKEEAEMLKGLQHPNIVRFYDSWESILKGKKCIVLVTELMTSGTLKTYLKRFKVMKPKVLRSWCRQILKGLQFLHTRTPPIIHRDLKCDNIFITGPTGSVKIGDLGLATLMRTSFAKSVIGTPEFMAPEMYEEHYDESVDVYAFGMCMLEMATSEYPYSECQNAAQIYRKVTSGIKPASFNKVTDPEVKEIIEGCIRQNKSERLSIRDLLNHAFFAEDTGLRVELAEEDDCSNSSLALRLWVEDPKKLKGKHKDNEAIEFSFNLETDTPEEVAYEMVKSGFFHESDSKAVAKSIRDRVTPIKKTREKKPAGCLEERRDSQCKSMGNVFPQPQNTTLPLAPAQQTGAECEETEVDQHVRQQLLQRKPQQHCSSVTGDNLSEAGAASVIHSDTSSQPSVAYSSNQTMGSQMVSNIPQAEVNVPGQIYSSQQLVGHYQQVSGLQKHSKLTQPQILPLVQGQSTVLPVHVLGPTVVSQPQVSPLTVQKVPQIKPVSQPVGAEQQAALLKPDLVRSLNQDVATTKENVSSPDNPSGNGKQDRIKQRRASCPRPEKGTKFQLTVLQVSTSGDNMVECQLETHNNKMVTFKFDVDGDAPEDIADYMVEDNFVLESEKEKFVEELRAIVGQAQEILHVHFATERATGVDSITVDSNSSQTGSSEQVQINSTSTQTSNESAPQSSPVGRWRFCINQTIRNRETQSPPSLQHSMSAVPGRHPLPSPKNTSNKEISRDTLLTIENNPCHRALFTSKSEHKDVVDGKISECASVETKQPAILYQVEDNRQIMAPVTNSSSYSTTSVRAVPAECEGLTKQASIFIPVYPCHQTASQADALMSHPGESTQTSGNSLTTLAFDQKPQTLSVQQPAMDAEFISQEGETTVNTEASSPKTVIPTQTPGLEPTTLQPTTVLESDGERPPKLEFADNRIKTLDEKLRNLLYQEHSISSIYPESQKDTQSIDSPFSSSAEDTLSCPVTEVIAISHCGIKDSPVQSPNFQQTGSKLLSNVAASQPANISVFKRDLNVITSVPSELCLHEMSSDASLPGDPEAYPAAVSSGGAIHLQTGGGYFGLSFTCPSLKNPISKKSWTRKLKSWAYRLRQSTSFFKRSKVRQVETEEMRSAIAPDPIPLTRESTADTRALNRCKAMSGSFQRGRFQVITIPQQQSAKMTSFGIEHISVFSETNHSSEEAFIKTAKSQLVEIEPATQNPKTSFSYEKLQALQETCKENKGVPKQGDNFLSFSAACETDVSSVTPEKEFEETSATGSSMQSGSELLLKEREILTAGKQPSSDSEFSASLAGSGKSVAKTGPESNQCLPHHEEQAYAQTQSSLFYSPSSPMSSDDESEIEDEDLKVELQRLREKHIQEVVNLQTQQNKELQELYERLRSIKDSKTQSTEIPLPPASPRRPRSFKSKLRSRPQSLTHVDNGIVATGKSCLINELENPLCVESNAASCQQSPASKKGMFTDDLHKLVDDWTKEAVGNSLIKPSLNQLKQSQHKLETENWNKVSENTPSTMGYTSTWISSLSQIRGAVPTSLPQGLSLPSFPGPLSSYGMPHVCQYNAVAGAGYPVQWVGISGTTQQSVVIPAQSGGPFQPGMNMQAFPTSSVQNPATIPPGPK

Compound: CN(C(=O)CN1CCOCC1)c1ccc2sc3c(-c4cccc5c(=O)cc(N6CC7CCC(C6)O7)oc45)cccc3c2c1 [NU5455]
- inhibition at 1 µM: -1.2%
